Laboratory results from PMC11306511, “Combining VPS34 inhibitors with STING agonists enhances type I interferon signaling and anti‐tumor efficacy” (Molecular Oncology, 2024).

Experiments:
[1] = tested on: B16-F10 tumors; test: Tumor growth inhibition study, B16-F10 tumor-bearing mice; format: in vivo, mouse; conditions: B16-F10 in C57BL/6 mice; SB02024 20 mg·kg^−1 oral daily day 7-16; ADU-S100 10 μg intratumoral days 9, 11, 13, 15
Description: Study protocols were approved by the Institutional Animal Care and Use Committee of CrownBio in China (AN‐1903‐05‐313) or the LIH's animal welfare committee in Luxembourg (agreement LECR‐2018‐12). Mice were handled according to European Union guidelines, adhering to the principles of replacement, reduction, and refinement (3Rs). Animals were housed in appropriate accommodations conducive to their well‐being, with provisions for housing, feeding, and environmental enrichment to meet their physical and behavioral needs. Highly skilled personnel were involved in carrying out procedures related to the animal experiments to ensure proper care and handling. Female 6 to 8‐week‐old BALB/c (supplied by Shanghai Lingchang Biotechnology Co., Shanghai, China; n = 14) or C57BL/6 mice (supplied by Janvier Labs, Le Genest‐Saint‐Isle, France; n = 40) were injected into the right flank with 1 × 10^6 Renca or 0.2 × 10^6 B16‐F10 cells, respectively, resuspended in 100 μL PBS (day 0). When tumors were palpable (day 9 for Renca, day 7 for B16‐F10 tumors), mice were randomly assigned into two groups for the Renca model with n = 6 (vehicle) and n = 8 (SB02024) or four groups for the B16‐F10 model with n = 10. […] Tumor growth was measured using a caliper every other day and estimated as follows: volume (cm^3) = (width)^2 × length × 0.5.

[2] = parameters: method as in PMID 34070756; conditions: cited from earlier work
[3] = tested on: A-498 cells; test: IFN/cytokine gene expression (qRT-PCR) and secretion (MSD) in A-498 cells; format: cell-based, human; conditions: 2 μM, 24 h, vs DMSO
Description: (§1) RNA was isolated using the PureLink kit (#12183018A; Thermo Fisher) and DNA‐binding columns (Rneasy plus kit, #74134; Qiagen) and/or Dnase treatment (#12185010; Thermo Fisher). After quantification using NanoDrop, 50 ng·μL^−1 RNA was used for cDNA synthesis with SuperScript IV VILO Master Mix (#11756050; Thermo Fisher). Quantitative RT‐PCR was run with diluted cDNA (1 : 25 or 1 : 12.5), PowerUp SYBR Green Master Mix (#A25741; Thermo Fisher), and 200 nM primers (see Table S3) on a CFX Connect RT‐PCR system (BioRad, Hercules, CA, USA). Data were analyzed using the ΔΔCT method.
(§2) Cell culture medium was centrifuged at 300 g for 10 min at 4 °C and supernatant stored at −80 °C. Mouse blood was collected at termination in K2‐EDTA tubes on ice, centrifuged at 1270 g for 10 min at 4 °C, and plasma was stored at −80 °C. Cytokine levels were quantified using Mesoscale Discovery (MSD) assays: human CCL5 (#F21ZN), CXCL10 (#K151UFK), IFNβ (#K151VIK); mouse CCL5 (#K152A2K) and CXCL10 (#K152UFK). Low concentrations of human IFNβ were determined using High‐Sensitivity IFNβ ELISA (#41415‐1; PBL Assay Science, Piscataway, NJ, USA). CCL5/CXCL10 levels in some experiments were quantified using R&D Systems (Minneapolis, MN, USA) ELISAs: human CCL5 (#DY278) or CXCL10 (#DY266); mouse CCL5 (#DY478).

[4] = tested on: B16-F10 cells; test: IFN/cytokine gene expression (qRT-PCR) and secretion (MSD) in B16-F10 cells; format: cell-based, murine; conditions: 2 μM, 24 h, vs DMSO
Description: as §1, §2

[5] = tested on: Me30966 cells; test: Gene expression (qRT-PCR) in Me30966 cells; format: cell-based, human; conditions: 2 μM, 24 h, vs DMSO
Description: (A) IFNB1 gene expression quantified by qRT-PCR after 24h treatment with DMSO control or 2 µM of VPS34 inhibitor
(=VPS34i, SB02024 or SAR405) in Me30966 cells.

Question: What does the source list for Nc1ncnc2c1ncn2[C@@H]1O[C@@H]2COP(=O)([S-])O[C@@H]3[C@H](O)[C@@H](COP([O-])(=S)O[C@H]2[C@H]1O)O[C@H]3n1cnc2c(N)ncnc21.[Na+].[Na+] (some centres unmarked) [ADU-S100, reference compound]?
Answer: % TGI (percent tumor growth inhibition compared to vehicle control) [1]: 36%; anti-tumor efficacy in clinical trials [2]: only limited

Question: For C[C@@H]1COCCN1c1cc(=O)n2c(n1)N(Cc1cncc(Cl)c1)[C@H](C(F)(F)F)CC2 [SAR405, reference compound], which “transcription of IFNB1 and ISGs IRF1, IRF7, IRF9” value [3] is on record?
Answer: The value was “significantly increased”.

Question: What about the “transcription of IFNB1 and ISGs IRF1, IRF7, IRF9” value [4] of the same compound?
Answer: Its value is “significantly increased”.

Question: And the IFNB1 expression [5]?
Answer: Its IFNB1 expression is “significantly increased”.
